Measured values as given in patent US9938321B2, “Cyclic peptoid oligomers, pharmaceutical compositions and methods of using the same” (priority 2013, dated 2018).
≈ marks a conversion by molar mass, not a printed value. Where two headings read alike, the source gives them in different places. Non-standard residues stand in square brackets, D forms with d. Residues, ends and D or L forms follow the SMILES beside them. Gly(N(CH2)3NH2) = NCCCNCC(=O)O; Nphe = O=C(O)CNCc1ccccc1; Orn = NCCC[C@H](N)C(=O)O; Nlys = NCCCCNCC(=O)O

How the values were obtained:
human erythrocytes = assay type: cell-based; details: red cells of human, 1 h
Text: A detrimental property of most AMPs is their toxicity towards host cells due to non-specific interactions with eukaryotic membranes. Thus, the development of antimicrobial oligomers is often aimed at maximizing antimicrobial activity while minimizing eukaryotic cell toxicity. The inventors therefore sought to determine the toxicity of the cyclic peptoids by measuring hemolytic activity. The concentration of antimicrobial compound required to lyse 10% of human erythrocytes (HC10) following incubation for 1 hour at 37° C., was determined.
Hemolysis assays were conducted in 96-well plates using fresh human erythrocytes in PBS (phosphate-buffered saline) solution. Erythrocytes treated with a detergent (1% Triton X-100) solution were used as a positive control for erythrocyte lysis, and vehicle buffer (PBS) was used as a negative control. Hemolytic percentages were defined as [(A−Atestblank)/(Acontrol−Ablank)]×100, where A is the absorbance of the test well and Acontrol the average absorbance of wells with erythrocytes exposed to […], Atestblank (PBS and antimicrobial) and Ablank (PBS only).

[1] = test system: MRSA USA300 (S. aureus LAC)
Method: The cyclic pentamers and hexamers were evaluated for antimicrobial activity against S. aureus LAC, a clinical isolate of MRSA. The antimicrobial assay was conducted using previously published procedures (CLSI Broth Macrodilution Procedures CLSI M07-A7).
(§1) Minimum Inhibitory Concentrations (MIC) were determined against S. aureus LAC in RPMI media supplemented with or without normal human serum (NHS). The 10% hemolytic dose was determined from lysis of human erythrocytes. A selectivity ratio (SR) is defined as HC10/MIC. Cytotoxicity assays were performed using a CellTiter kit with HeLa cells. […] TI: therapeutic index defined as LD50/MIC.
(§2) Antimicrobial susceptibility assays were conducted in 96-well plates using the broth microdilution procedure outlined in the document M07-A7 of the CLSI (Clinical and Laboratory Standards Institute. Methods for Dilution Antimicrobial Susceptibility Tests for Bacteria That Grow Aerobically-Seventh Edition: Approved Standard CLSI document M07-A7. CLSI, Wayne, USA, 2006). Screens against Staphylococcus aureus LAC, MW2, Newman, and RN6734 were conducted in RPMI (Roswell Park Memorial Institute) medium. For assays in serum, normal human pooled serum (NHS) was filtered through a 0.45 μm syringe filter (Pall) prior to dilution with RPMI, such that each well contained 50% (v/v) NHS. Experiments were conducted in three independent replicates of three parallel trials to ensure statistical significance.
(§3) MRSA pulse-field gel electrophoresis types USA300 (strain LAC) (Kennedy, et al, Proc. Natl. Acad. Sci. U.S.A. 2008, 105, 1327-1332) and USA500 (BK2395) (Alonzo, 3rd, et al, Mol. Microbiol. 2012, 83, 423-435) were used in this study. S. aureus were grown in tryptic soy broth (BD Biosciences) as described previously. (Alonzo) Antimicrobial susceptibility assays were conducted in 96-well plates using the broth […] procedure outlined in the document M07-A7 of the CLSI. (Clinical and Laboratory Standards Institute. Methods for Dilution Antimicrobial Susceptibility Tests for Bacteria That Grow Aerobically-Seventh Edition: Approved Standard CLSI document M07-A7. CLSI, Wayne, USA, 2006). The screens against Staphylococcus aureus LAC were conducted in either LB (Luria-Bertani) or RPMI medium. For assays in serum, normal human pooled serum (NHS) was filtered through a 0.45 μm syringe filter (Pall) prior to dilution with RPMI, such that each well contained 50% (v/v) NHS. Experiments were conducted in three independent replicates of three parallel trials to ensure statistical significance.

[2] = test system: MRSA USA300 (S. aureus LAC); details: for decrease in anti-microbial activity in serum: 50% NHS versus no serum; for MIC + NHS: MRSA USA300 in 50% (v/v) normal human serum
Method: The antimicrobial activities of these four compounds were evaluated in the presence of serum. Such a consideration is critical in evaluating the potential of antimicrobial compounds to be used systemically, as serum components (e.g. proteins) may complicate antimicrobial activity. The assay was conducted similarly as described above, with the media supplemented with 50% normal human serum (NHS).
as §1, §2, §3

in vitro = details: for CC50 at 1 h / CC50: LC50 (50% lethal concentration), HeLa cells, 1 hr incubation at 37° C.
Method: (§4) As an additional parameter of selectivity, the inventors also evaluated the compounds for toxicity towards nucleated mammalian cells (FIG. 3). The compounds were incubated with HeLa cells for 1 hr at 37° C. and cell viability was determined by a dye-based assay.
(§5) HeLa cells (˜[…] cells per well) were seeded in a tissue culture-treated 96-well plate (Corning). The cells were monitored for confluence via light microscopy prior to the addition of compounds to a final volume of 100 μL/well. Following incubation with the compounds (for 1 hour or 24 hours at 37° C.), Cell Titer (Promega) was added to each well and the assay was allowed to develop for 1 hour at 37° C. Absorbance was then read at 490 nm using a Wallac Envision plate reader. The experiments were always conducted in triplicate with water or ethanol as the negative control. Percent cell viability (% CV) was calculated as the ratio of mean absorbance of the test wells and the mean absorbance of the water or ethanol treated wells.
(§6) Following seeding in DMEM supplemented with 10% v/v FBS (fetal bovine serum) in tissue-culture plates (Corning), adherent HeLa cells were trypsinized, washed in PBS, and re-suspended in medium at a density of 1×10^6 cells/mL. A 100 μL cell suspension was seeded onto a 96-well plate and cultured for 25 hrs. Subsequently, cells were exposed to the different compounds for 1 and 24 hrs and the cell viability evaluated using CellTiter 96® AQueous Non-Radioactive Cell Proliferation Assay (Promega).

[3] = test system: Plasmodium falciparum 3D7; details: 3D7, 96 h
Method: In order to assess the ability of the peptoid oligomers described herein to act as antimalarial agents, fluorescence-based in vitro antimalarial assays were performed.
Cultures are maintained by changing the medium daily and keeping parasitemia below 6%. When performed, parasite cultures are synchronized using a MACS cell separation column (Miltenyi Biotec). To determine parasitemia, the number of parasitized erythrocytes from 500 cells in a Giemsa stained blood smear are counted.
Drug Treatment: • 1. Add 100 μL of warm (37° C.) complete media containing drug to each well of a 96 multi-well clear, sterile plate. • 2. […] After 96 hours of growth*, freeze at −80° C. overnight. *Note: Growth can be examined by pipetting 5 from desired wells onto slides and creating blood smears. […] After freezing, thaw at 37° C. for 4 hours. • 6. Transfer 100 μL, pipetting wells up and down to mix, to a black, sterile 96 well plate. • 7. Create working solution of 0.2 μL of SYBR Green per 1 mL of lysis buffer, and add 100 μL of this solution to each well, pipetting up and down to mix/lyse erythrocytes. *Note: mixture should be a translucent red color. • 8. Incubate at room temperature, protected from light, on a shaker for 1 hour.
Measure the fluorescence using excitation and emission wavelengths of 485 and 530 nm, respectively. […]

HeLa cells = test: in vitro; details: HeLa cells, 1 hr incubation at 37° C.
Method: as §4, §5, §6

S. aureus LAC = test: Scanning electron microscopy of treated cells (Example 1); assay type: cell-based, Staphylococcus aureus; details: sub-MIC, MIC, or supra-MIC; 1 hr or 18 hr
Text: AMPs have long been thought to exert their bactericidal activities by interacting with negatively-charged bacterial membranes (Zasloff, Nature 2002, 415, 389-395; Ivankin, et al, Angew. Chem. Int. Ed. 2010, 49, 8462-8465). While the exact mode of action has yet to be fully understood, the interaction of the AMP eventually leads to damage of the bacterial membrane that is visible by scanning electron microscopy (SEM). (Hartmann et al, 2010, Antimicrob Agents Ch 54, 3132-3142) SEM was used to examine the morphological changes which occur to the S. aureus cell surface upon exposure to peptoid antimicrobials (FIG. 2).
SEM samples were prepared following the procedure outlined in Hartmann et al ([…], Antimicrob Agents Ch 54:3132-3142). Mid-exponential S. aureus LAC in LB medium (10 g/L tryptone and 5 g/L yeast, pH 7.4) was prepared by diluting an overnight culture of S. aureus LAC in LB media till OD600˜0.4 (approximately 3 hours at 37° C.). […] After washing with PBS, the samples were treated with 30% ethanol for 10 minutes, 3% uranyl acetate (Electron Microscopy Sciences) in 30% ethanol/water, 50% ethanol for 10 minutes, and 70% ethanol overnight at 4° C. […]

physchem = details: water
[4] = Table 2, S. aureus LAC, clinical isolate of MRSA
[5] = Table 3, MRSA USA300, without serum

N=C(N)NCCCCN1CC(=O)N(CC(c2ccccc2)c2ccccc2)CC(=O)N(CCCCNC(=N)N)CC(=O)N(CC(c2ccccc2)c2ccccc2)CC(=O)N(CCCCNC(=N)N)CC(=O)N(CC(c2ccccc2)c2ccccc2)CC(=O)N(CCCCNC(=N)N)CC(=O)N(CC(c2ccccc2)c2ccccc2)CC(=O)N(CCCCNC(=N)N)CC(=O)N(CC(c2ccccc2)c2ccccc2)CC1=O [Compound 31, C(NgbNdp)5]
HC10 (concentration required to lyse 10% of human erythrocytes) (human erythrocytes): >62.5 µg/mL

NCCCN1CC(=O)N(Cc2ccccc2)CC(=O)N(CCCN)CC(=O)N(Cc2ccccc2)CC(=O)N(CCCN)CC(=O)N(Cc2ccccc2)CC1=O [Compound 23, C(NapNpm)3] (cyclo([Nphe][Gly(N(CH2)3NH2)][Nphe][Gly(N(CH2)3NH2)][Nphe][Gly(N(CH2)3NH2)]))
HC10 (concentration required to lyse 10% of human erythrocytes) (human erythrocytes): >250 µg/mL

NCCCCN1CC(=O)N(Cc2ccccc2)CC(=O)N(CCCCN)CC(=O)N(Cc2ccccc2)CC(=O)N(CCCCN)CC(=O)N(Cc2ccccc2)CC1=O [Compound 30, C(NabNpm)3] (cyclo([Nlys][Nphe][Nlys][Nphe][Nlys][Nphe]))
HC10 (concentration required to lyse 10% of human erythrocytes) (human erythrocytes): >250 µg/mL

Cc1ccc(CN2CC(=O)N(CCCN)CC(=O)N(Cc3ccc(C)cc3)CC(=O)N(CCCN)CC(=O)N(Cc3ccc(C)cc3)CC(=O)N(CCCN)CC2=O)cc1 [Compound C122, C(NapNpmpm)3]
MIC [1, 4]: 15.6 µg/mL (≈ 18.9 µM)

NCCCN1CC(=O)N(Cc2cc(C(F)(F)F)cc(C(F)(F)F)c2)CC(=O)N(CCCN)CC(=O)N(Cc2cc(C(F)(F)F)cc(C(F)(F)F)c2)CC(=O)N(CCCN)CC(=O)N(Cc2cc(C(F)(F)F)cc(C(F)(F)F)c2)CC1=O [Compound C125, C(NapNbtfmb)3]
MIC [1, 4]: 3.9 µg/mL (≈ 3.27 µM)
MIC [1, 5]: 3.9 µg/mL (≈ 3.27 µM)
decrease in anti-microbial activity in serum [2]: sixteen-fold
MIC + NHS [2]: 62.5 µg/mL
CC50 at 1 h (in vitro; human): 47 µg/mL (≈ 39.4 µM)

NCCCN1CC(=O)N(Cc2ccc(C(F)(F)F)cc2)CC(=O)N(CCCN)CC(=O)N(Cc2ccc(C(F)(F)F)cc2)CC(=O)N(CCCN)CC(=O)N(Cc2ccc(C(F)(F)F)cc2)CC1=O [Compound C123, C(NapNptfmpm)3]
MIC ([1]; USA300): 3.9 µg/mL (≈ 3.95 µM)

NCCCN1CC(=O)N(c2ccc3c(c2)Cc2ccccc2-3)CC(=O)N(CCCN)CC(=O)N(c2ccc3c(c2)Cc2ccccc2-3)CC(=O)N(CCCN)CC(=O)N(c2ccc3c(c2)Cc2ccccc2-3)CC1=O [Compound C106, C(NapN2flene)3]
MIC ([1]; USA300): 3.9 µg/mL (≈ 3.88 µM)

NCCCN1CC(=O)N(C(c2ccccc2)c2ccccc2)CC(=O)N(CCCN)CC(=O)N(C(c2ccccc2)c2ccccc2)CC(=O)N(CCCN)CC(=O)N(C(c2ccccc2)c2ccccc2)CC1=O [Compound C104, C(NapNdpm)3]
MIC ([1]; USA300): 3.9 µg/mL (≈ 3.85 µM)

COc1ccc(CN2CC(=O)N(CCCN)CC(=O)N(Cc3ccc(OC)c(OC)c3)CC(=O)N(CCCN)CC(=O)N(Cc3ccc(OC)c(OC)c3)CC(=O)N(CCCN)CC2=O)cc1OC [Compound C5-1]
IC50 [3]: 26.8 µM

CC(C)C[C@@H]1NC(=O)[C@H](CCCN)NC(=O)[C@H](C(C)C)NC(=O)[C@@H]2CCCN2C(=O)[C@@H](Cc2ccccc2)NC(=O)[C@H](CC(C)C)NC(=O)[C@H](CCCN)NC(=O)[C@H](C(C)C)NC(=O)[C@@H]2CCCN2C(=O)[C@@H](Cc2ccccc2)NC1=O [Gramicidin S, reference compound] (cyclo(V[Orn]L[dF]PV[Orn]L[dF]P))
MIC [1, 5]: 31.3 µg/mL (≈ 27.4 µM)
MIC + NHS [2]: 31.3 µg/mL
CC50 (in vitro): 31.3 µg/mL (≈ 27.4 µM)

NCCCN1CC(=O)N(Cc2ccc(-c3ccccc3)cc2)CC(=O)N(CCCN)CC(=O)N(Cc2ccc(-c3ccccc3)cc2)CC(=O)N(CCCN)CC(=O)N(Cc2ccc(-c3ccccc3)cc2)CC1=O [Compound C105, C(NapNpp)3]
MIC ([1]; USA300): 3.9 µg/mL (≈ 3.85 µM)

Cc1cc(C)cc(CN2CC(=O)N(CCCN)CC(=O)N(Cc3cc(C)cc(C)c3)CC(=O)N(CCCN)CC(=O)N(Cc3cc(C)cc(C)c3)CC(=O)N(CCCN)CC2=O)c1 [Compound C124, C(NapNdmb)3]
MIC [1, 4]: 3.9 µg/mL (≈ 4.49 µM)
MIC ([1]; USA300): 3.9 µg/mL (≈ 4.49 µM)
decrease in anti-microbial activity in serum [2]: approximately four-fold
MIC + NHS [2]: 15.6 µg/mL
HC10 (concentration required to lyse 10% of human erythrocytes) (human erythrocytes): 125 µg/mL
CC50 at 24 h (in vitro; human): ~100 µg/mL (≈ 115 µM)
CC50 at 1 h (in vitro; human): 180 µg/mL (≈ 207 µM)
LC50 (50% lethal concentration) (HeLa cells): ~180 µg/mL (≈ 207 µM)
cell morphology by SEM (S. aureus LAC): cell surface damage
IC50 [3]: 17 µM
solubility (physchem): ≥ 15 mg/mL

NCCCN1CC(=O)N(CC(c2ccccc2)c2ccccc2)CC(=O)N(CCCN)CC(=O)N(CC(c2ccccc2)c2ccccc2)CC(=O)N(CCCN)CC(=O)N(CC(c2ccccc2)c2ccccc2)CC1=O [Compound C3, C(NapNdp)3]
MIC + NHS [2]: 15.6 µg/mL
CC50 (in vitro): 63 µg/mL (≈ 59.8 µM)

NCCCN1CC(=O)N(CCC(c2ccccc2)c2ccccc2)CC(=O)N(CCCN)CC(=O)N(CCC(c2ccccc2)c2ccccc2)CC(=O)N(CCCN)CC(=O)N(CCC(c2ccccc2)c2ccccc2)CC1=O [Compound C103, C(NapNdpp)3]
MIC ([1]; USA300): 3.9 µg/mL (≈ 3.56 µM)
